Biological target: human DGAT1 enzyme (Homo sapiens (Human), UniProt O75907)
Conditions: read-out: hDGAT1 IC50; human DGAT1 expressed in Sf9 insect cells, microsomes; 2 hours at room temperature
Method: The in vitro assay to identify DGAT1 inhibitors uses human DGAT1 enzyme expressed in Sf9 insect cells prepared as microsomes. The reaction was initiated by the addition of the combined substrates 1,2-dioleoyl-sn-glycerol and [^14C]-palmitoyl-CoA and incubated with test compounds and microsomal membranes for 2 hours at room temperature. The assay was stopped by adding 0.5 mg wheat germ agglutinin beads in assay buffer with 1% Brij-35 and 1% 3-cholamidopropyldimethyl-ammonio-1-propane sulfonate. Plates were sealed with TopSeal and incubated for 18 hours to allow the radioactive triglyceride product to come into proximity with the bead. Plates were read on a TopCount instrument.
Percent inhibition was calculated as the percent of (test compound inhibition minus non-specific binding) relative to (total binding minus non-specific binding). IC50 values were determined by curve fitting the data to a Sigmoidal dose-response in GraphPad Prism utilizing the following equation: Y=A+(B−A)/(1+10^((Log IC50−X))), where A and B are the bottom and top of the curve (highest and lowest inhibition), respectively, and X is the logarithm of concentration.

Chain of human DGAT1 enzyme (O75907 whole entry): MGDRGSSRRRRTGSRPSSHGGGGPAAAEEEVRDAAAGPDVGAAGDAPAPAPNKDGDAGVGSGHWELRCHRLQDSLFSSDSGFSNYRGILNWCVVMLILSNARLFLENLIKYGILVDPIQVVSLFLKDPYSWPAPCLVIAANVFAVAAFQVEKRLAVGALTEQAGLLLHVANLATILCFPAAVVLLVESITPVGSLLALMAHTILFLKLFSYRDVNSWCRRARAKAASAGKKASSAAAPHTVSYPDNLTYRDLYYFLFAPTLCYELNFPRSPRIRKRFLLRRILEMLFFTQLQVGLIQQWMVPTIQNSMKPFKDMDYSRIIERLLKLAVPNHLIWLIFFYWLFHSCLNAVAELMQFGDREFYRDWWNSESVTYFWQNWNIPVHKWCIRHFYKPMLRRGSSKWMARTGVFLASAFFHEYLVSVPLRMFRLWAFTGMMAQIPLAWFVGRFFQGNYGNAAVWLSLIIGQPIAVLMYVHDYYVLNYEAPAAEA

- IC50: 275 nM
Structure (SMILES): Cc1cc(C(=O)Nc2ccccc2)c2ccc(-c3ccc(OCC(C)(C)C(=O)O)nc3)cc2n1 [Example B-17, 2,2-dimethyl-3-(5-(2-methyl-4-(phenylcarbamoyl)quinolin-7-yl)pyridin-2-yloxy)propanoic acid]

Source: patent US8637507B2, “Bicyclic compounds as inhibitors of diacylglycerol acyltransferase” (Merck Sharp & Dohme Corp., priority 2009, dated 2014)
